Literature values in patent publication US9364565B2, “Medical device with coating for capturing genetically-altered cells and methods of using same” (OrbusNeich Medical, Inc., priority 2000, dated 2016).

Experiments:
[1] = test system: endothelial cells; conditions: 100 μg
[2] = molecular target: VEGFR-2 (Homo sapiens, UniProt P35968)
Chain of VEGFR-2 (P35968 20-1356): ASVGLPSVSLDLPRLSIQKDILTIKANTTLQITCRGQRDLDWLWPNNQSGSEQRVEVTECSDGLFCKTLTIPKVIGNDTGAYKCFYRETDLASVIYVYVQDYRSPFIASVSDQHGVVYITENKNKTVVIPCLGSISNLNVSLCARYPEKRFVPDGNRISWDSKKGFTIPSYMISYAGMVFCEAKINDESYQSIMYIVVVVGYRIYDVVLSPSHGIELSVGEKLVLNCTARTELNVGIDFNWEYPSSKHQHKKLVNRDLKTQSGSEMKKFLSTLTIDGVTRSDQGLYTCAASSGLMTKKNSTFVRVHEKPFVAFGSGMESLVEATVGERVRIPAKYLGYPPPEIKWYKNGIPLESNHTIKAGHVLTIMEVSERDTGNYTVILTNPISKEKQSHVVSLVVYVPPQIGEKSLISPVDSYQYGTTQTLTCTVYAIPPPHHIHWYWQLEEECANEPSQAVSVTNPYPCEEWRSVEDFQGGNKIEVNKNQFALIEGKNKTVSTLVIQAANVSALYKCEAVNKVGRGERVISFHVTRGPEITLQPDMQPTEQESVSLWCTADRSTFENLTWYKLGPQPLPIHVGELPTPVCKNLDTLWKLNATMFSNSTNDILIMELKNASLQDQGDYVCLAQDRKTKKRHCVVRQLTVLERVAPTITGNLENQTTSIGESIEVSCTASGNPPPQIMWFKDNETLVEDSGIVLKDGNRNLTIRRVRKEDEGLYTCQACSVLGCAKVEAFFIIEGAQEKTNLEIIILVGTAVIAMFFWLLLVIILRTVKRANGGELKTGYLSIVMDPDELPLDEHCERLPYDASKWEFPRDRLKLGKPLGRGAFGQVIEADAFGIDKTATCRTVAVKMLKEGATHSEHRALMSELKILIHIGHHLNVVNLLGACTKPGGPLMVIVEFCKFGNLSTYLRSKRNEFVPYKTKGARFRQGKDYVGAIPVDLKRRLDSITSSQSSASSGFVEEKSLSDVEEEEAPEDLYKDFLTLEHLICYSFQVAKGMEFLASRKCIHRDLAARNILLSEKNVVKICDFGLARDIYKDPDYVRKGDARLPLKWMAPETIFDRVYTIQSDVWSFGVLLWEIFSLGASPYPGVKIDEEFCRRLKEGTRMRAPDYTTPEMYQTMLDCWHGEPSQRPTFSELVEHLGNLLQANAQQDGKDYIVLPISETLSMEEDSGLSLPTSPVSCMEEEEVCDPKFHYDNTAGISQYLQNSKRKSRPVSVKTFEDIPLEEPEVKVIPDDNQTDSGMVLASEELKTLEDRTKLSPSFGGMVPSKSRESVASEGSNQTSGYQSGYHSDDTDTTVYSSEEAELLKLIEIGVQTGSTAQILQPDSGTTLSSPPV

## VEGF
[1]
  adherence of endothelial cells on a medical device: stimulate the adherence of endothelial cells on a medical device

## Cc1[nH]c(/C=C2\C(=O)Nc3ccccc32)c(C)c1CCC(=O)O [SU6668]
[2]
  binding to VEGFR-2: bind to VEGFR-2
